Reference: PubChem BioAssay AID248 (DTP/NCI, 2004)
Where “and” joins values, the source holds several entries; their conditions need not be identical. Equal entries are not always repeated. Inconclusive results and toxic doses are left out. No stated cut-off is given here; in the data, active means T/C of 150% or more; inactive means T/C below 125%.

Tested on: L1210 leukemia ip in BDF1 mice, survival T/C
Experiment: NCI In Vivo Anticancer Drug Screen. Data for tumor model L1210 Leukemia (intraperitoneal) in B6D2F1 (BDF1) mice
Details: endpoint: mean survival time, higher = longer survival
Summary of the method: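 Tumor was transplanted into mice, which were then dosed with test compound or vehicle alone. Survival was recorded for each group, and the treated figure was expressed relative to the control figure.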

[1] = dose: 100.0 mg/kg/injection, schedule: Q04DX002 (ip), vehicle: saline
[2] = dose: 100.0 mg/kg/injection, schedule: Q01DX009 (ip), vehicle: Klucel (hydroxypropylcellulose) (HPC)
[3] = dose: 200.0 mg/kg/injection, schedule: Q01DX009 (ip), vehicle: Klucel (hydroxypropylcellulose) (HPC)
[4] = dose: 400.0 mg/kg/injection, schedule: Q01DX009 (ip), vehicle: Klucel (hydroxypropylcellulose) (HPC)
[5] = dose: 100.0 mg/kg/injection, schedule: Q04DX003 (ip), vehicle: saline
[6] = dose: 200.0 mg/kg/injection, schedule: Q04DX003 (ip), vehicle: saline
[7] = dose: 400.0 mg/kg/injection, schedule: Q04DX003 (ip), vehicle: saline
[8] = dose: 100.0 mg/kg/injection, schedule: Q01DX009 (ip), vehicle: saline with Tween-80
[9] = dose: 200.0 mg/kg/injection, schedule: Q01DX009 (ip), vehicle: saline with Tween-80
[10] = dose: 100.0 mg/kg/injection, schedule: Q04DX003 (ip), vehicle: saline with Tween-80
[11] = dose: 200.0 mg/kg/injection, schedule: Q04DX003 (ip), vehicle: saline with Tween-80

Measured: T/C

Clc1c(Cl)c([O][Sn]([c]2ccccc2)([c]2ccccc2)[c]2ccccc2)c(Cl)c(Cl)c1[O][Sn]([c]1ccccc1)([c]1ccccc1)[c]1ccccc1
inactive: dose: 3.12 mg/kg/injection, schedule: Q01DX009 (ip), vehicle: Klucel (hydroxypropylcellulose) (HPC) 108 % of control | dose: 6.25 mg/kg/injection, schedule: Q01DX009 (ip), vehicle: Klucel (hydroxypropylcellulose) (HPC) 91 % of control | dose: 25.0 mg/kg/injection, schedule: Q01DX009 (ip), vehicle: Klucel (hydroxypropylcellulose) (HPC) 90 % of control

Nc1nc(=S)c2[nH]c(=S)[nH]c2[nH]1
inactive: dose: 12.0 mg/kg/injection, schedule: Q01DX009 (ip), vehicle: saline 119 % of control | dose: 15.0 mg/kg/injection, schedule: Q01DX Z (ip), vehicle: saline 119 % of control | dose: 23.0 mg/kg/injection, schedule: Q01DX Z (ip), vehicle: saline 124 % of control | dose: 175.0 mg/kg/injection, schedule: Q01DX001 (ip), vehicle: saline 121 % of control | dose: 400.0 mg/kg/injection, schedule: Q01DX Z (ip), vehicle: carboxymethylcellulose (CMC) 98 % of control

CC(N)CN (stereo not drawn)
inactive: [1] 100 % of control | dose: 200.0 mg/kg/injection, schedule: Q04DX002 (ip), vehicle: saline 89 % of control | dose: 400.0 mg/kg/injection, schedule: Q04DX002 (ip), vehicle: saline 103 % of control

c1ccc([P+](Cc2ccc3c(c2)OCO3)(c2ccccc2)c2ccccc2)cc1
inactive: dose: 12.5 mg/kg/injection, schedule: Q01DX001 (ip), vehicle: saline 98 % of control | dose: 12.5 mg/kg/injection, schedule: Q01DX009 (ip), vehicle: saline 101 % of control | dose: 12.5 mg/kg/injection, schedule: Q04DX003 (ip), vehicle: saline 95 % of control | dose: 25.0 mg/kg/injection, schedule: Q01DX001 (ip), vehicle: saline 95 % of control | dose: 25.0 mg/kg/injection, schedule: Q04DX003 (ip), vehicle: saline 106 % of control | dose: 50.0 mg/kg/injection, schedule: Q01DX001 (ip), vehicle: saline 96 % of control | dose: 50.0 mg/kg/injection, schedule: Q04DX003 (ip), vehicle: saline 88 % of control

CCCCOC(=N)N(CCCC)CC(C)(C)[N+](=O)[O-]
inactive: dose: 44.0 mg/kg/injection, schedule: Q01DX Z (ip), vehicle: methylcellulose (MC) 98 % of control | dose: 100.0 mg/kg/injection, schedule: Q01DX Z (ip), vehicle: methylcellulose (MC) 98 % of control

CCCCCCCN1CCCC(OC(=O)N(C)C)C1 (stereo not drawn)
inactive: dose: 25.0 mg/kg/injection, schedule: Q04DX002 (ip), vehicle: saline 110 % of control | dose: 50.0 mg/kg/injection, schedule: Q04DX002 (ip), vehicle: saline 103 % of control | [1] 110 % of control and 89 % of control

CC(=O)N(CCN(Cc1ccc(Oc2ccc([N+](=O)[O-])cc2[N+](=O)[O-])cc1)C(C)=O)CCN(Cc1ccc(Oc2ccc([N+](=O)[O-])cc2[N+](=O)[O-])cc1)C(C)=O
inactive: dose: 25.0 mg/kg/injection, schedule: Q01DX009 (ip), vehicle: other 102 % of control | dose: 50.0 mg/kg/injection, schedule: Q01DX009 (ip), vehicle: other 97 % of control | dose: 100.0 mg/kg/injection, schedule: Q01DX009 (ip), vehicle: other 96 % of control | dose: 200.0 mg/kg/injection, schedule: Q01DX009 (ip), vehicle: other 96 % of control | dose: 400.0 mg/kg/injection, schedule: Q01DX009 (ip), vehicle: other 93 % of control

Cc1ccc(C(=O)CC(Sc2ccccc2N)c2cccc([N+](=O)[O-])c2)cc1 (stereo not drawn)
inactive: dose: 100.0 mg/kg/injection, schedule: Q01DX005 (ip), vehicle: Klucel (hydroxypropylcellulose) (HPC) 93 % of control | [2] 97 % of control | dose: 100.0 mg/kg/injection, schedule: Q04DX002 (ip), vehicle: Klucel (hydroxypropylcellulose) (HPC) 98 % of control | dose: 200.0 mg/kg/injection, schedule: Q01DX005 (ip), vehicle: Klucel (hydroxypropylcellulose) (HPC) 96 % of control | [3] 94 % of control | dose: 400.0 mg/kg/injection, schedule: Q01DX005 (ip), vehicle: Klucel (hydroxypropylcellulose) (HPC) 115 % of control | [4] 97 % of control | dose: 400.0 mg/kg/injection, schedule: Q04DX002 (ip), vehicle: Klucel (hydroxypropylcellulose) (HPC) 95 % of control

CCC(Cl)COP(=O)(CC(Cl)CC)O/C(C)=C(\C)OP(=O)(OCC(Cl)CC)OCC(Cl)CC (stereo not drawn)
inactive: dose: 25.0 mg/kg/injection, schedule: Q04DX002 (sc), vehicle: olive oil, sesame oil, peanut oil 104 % of control | dose: 50.0 mg/kg/injection, schedule: Q04DX002 (sc), vehicle: olive oil, sesame oil, peanut oil 93 % of control | dose: 100.0 mg/kg/injection, schedule: Q04DX002 (sc), vehicle: olive oil, sesame oil, peanut oil 107 % of control

O=C(C[n+]1cccc(Cl)c1)c1ccccc1
inactive: dose: 0.5 mg/kg/injection, schedule: Q04DX003 (ip), vehicle: saline 113 % of control | dose: 1.0 mg/kg/injection, schedule: Q04DX003 (ip), vehicle: saline 105 % of control | dose: 2.0 mg/kg/injection, schedule: Q04DX003 (ip), vehicle: saline 102 % of control

C=CCc1ccc(OC(=O)Nc2cccc(OC)c2)c(OC)c1
inactive: [2] 106 % of control | [3] 98 % of control | [4] 88 % of control

CCOC(=O)C(=CNc1ccc(OCCCOc2ccccc2)cc1)C(=O)OCC
inactive: dose: 100.0 mg/kg/injection, schedule: Q01DX001 (ip), vehicle: gum acacia 98 % of control | dose: 200.0 mg/kg/injection, schedule: Q01DX001 (ip), vehicle: gum acacia 90 % of control | dose: 400.0 mg/kg/injection, schedule: Q01DX001 (ip), vehicle: gum acacia 102 % of control

COC(=O)c1ccc(Cn2cnc3ncnc(Cl)c32)cc1
inactive: dose: 100.0 mg/kg/injection, schedule: Q04DX003 (ip), vehicle: Klucel (hydroxypropylcellulose) (HPC) 92 % of control | dose: 200.0 mg/kg/injection, schedule: Q04DX003 (ip), vehicle: Klucel (hydroxypropylcellulose) (HPC) 91 % of control | dose: 400.0 mg/kg/injection, schedule: Q04DX003 (ip), vehicle: Klucel (hydroxypropylcellulose) (HPC) 105 % of control

COc1ccccc1NC(=O)NCCN1CCCC1
inactive: [2] 98 % of control | [3] 98 % of control

OC1(C2(O)c3ccccc3Oc3ccccc32)c2ccccc2Oc2ccccc21
inactive: [5] 95 % of control | [6] 95 % of control | [7] 97 % of control

CCOC(=O)C1=C2C(C(=O)OCC)C(O)=C(C(=O)OCC)C2C(C(=O)OCC)C1=O (stereo not drawn)
inactive: dose: 100.0 mg/kg/injection, schedule: Q01DX001 (ip), vehicle: saline 103 % of control | dose: 100.0 mg/kg/injection, schedule: Q01DX009 (ip), vehicle: saline 104 % of control | [5] 97 % of control | dose: 200.0 mg/kg/injection, schedule: Q01DX001 (ip), vehicle: saline 92 % of control | dose: 200.0 mg/kg/injection, schedule: Q01DX009 (ip), vehicle: saline 104 % of control | [6] 103 % of control | dose: 400.0 mg/kg/injection, schedule: Q01DX001 (ip), vehicle: saline 97 % of control | dose: 400.0 mg/kg/injection, schedule: Q01DX009 (ip), vehicle: saline 109 % of control | [7] 117 % of control

C=CCCCCCCCCC(=O)NC(C)COC (stereo not drawn)
inactive: dose: 50.0 mg/kg/injection, schedule: Q01DX009 (ip), vehicle: saline with Tween-80 103 % of control | [8] 103 % of control | [9] 100 % of control

CC(=O)NC(C)(NC(=O)CCl)C(=O)O (stereo not drawn)
inactive: dose: 100.0 mg/kg/injection, schedule: Q01DX001 (ip), vehicle: saline with Tween-80 98 % of control | [8] 94 % of control and 108 % of control | dose: 100.0 mg/kg/injection, schedule: Q04DX002 (ip), vehicle: saline with Tween-80 96 % of control and 101 % of control | [10] 106 % of control | dose: 200.0 mg/kg/injection, schedule: Q01DX001 (ip), vehicle: saline with Tween-80 102 % of control | [9] 89 % of control and 90 % of control | dose: 200.0 mg/kg/injection, schedule: Q04DX002 (ip), vehicle: saline with Tween-80 93 % of control and 104 % of control | [11] 98 % of control | dose: 400.0 mg/kg/injection, schedule: Q01DX001 (ip), vehicle: saline with Tween-80 107 % of control | dose: 400.0 mg/kg/injection, schedule: Q01DX009 (ip), vehicle: saline with Tween-80 97 % of control | dose: 400.0 mg/kg/injection, schedule: Q04DX002 (ip), vehicle: saline with Tween-80 95 % of control and 101 % of control

CC1=CC(=O)N(NC(N)=O)C1=O
inactive: [10] 94 % of control | [9] 90 % of control | [11] 102 % of control | dose: 400.0 mg/kg/injection, schedule: Q04DX003 (ip), vehicle: saline with Tween-80 105 % of control
